In patent US8748470B2, “Methods for treating ovarian cancer by inhibiting fatty acid binding proteins” (The University of Chicago, priority 2011, dated 2014):

How the values were obtained:
[1] = tested on: HSL phosphorylation; experiment: immunoblot for phosphorylated hormone sensitive lipase (p-HSL) in adipocyte/SKOV3ip1 coculture; assay type: cell-based, human; settings: pretreated with 10 μM propranolol
Text: FIGS. 9a-9d Cocultivation of ovarian cancer cells with adipocytes activates lipolysis in adipocytes and β-oxidation in cancer cells. (a) Quantitative RT-PCR for perilipin 1 in primary human omental adipocytes (Adi) cultured with and without SKOV3ip1 ovarian cancer (OvCa) cells. Bars report mean fold change relative to glyceraldehyde 3-phosphate dehydrogenase expression±s.e.m. (b) Immunoblot for phosphorylated hormone sensitive lipase (p-HSL) and total HSL in SKOV3ip1 cells cocultured with (+) and without (−) adipocytes and pretreated with 10 μM propranolol, a β-adrenergic receptor antagonist. (c) SKOV3ip1 cells were cocultured (1 h) with adipocytes, treated with isoproterenol (positive control) or 14-22 amide (negative control) and protein kinase A (PKA) activity was assessed. (d) β-oxidation in MONTY-1 OvCa cells cocultured with primary human adipocytes (L-carnitine, positive control; etomoxir, negative control). The graph reports the average oxidation rate at the indicated times±s.e.m.
Immunoblotting. In coculture experiments, primary human omental adipocytes were added to CMFDA-labeled SKOV3ip1 cells in SFM (1:5, PCV adipocytes:SFM) and incubated for 24 h. The adipocytes were removed and the SKOV3ip1 cells were subjected to FACS sorting to remove any remaining adipocytes in experiments involving FABP4 expression. […]

[2] = tested on: SKOV3ip1 cells; experiment: lipid accumulation in cancer cells cocultured with primary human omental adipocytes (Bodipy 493/503, confocal microscopy); assay type: cell-based
Text: (§1) FIGS. 11a-11g FABP4 has a key role in the interaction of cancer cells with adipocytes. (a) Representative immunohistochemical staining (bottom) for FABP4 in serial sections of primary ovarian tumor and corresponding omental metastatic tissues from a subject with stage IIIC advanced serous ovarian cancer (as classified by the International Federation of Gynecology and Obstetrics). Hematoxylin and eosin (H & E) staining is in the top images. The graph on the right is a summary of FABP4 protein expression scoring in 20 subjects, as assessed by immunohistochemistry. The scoring (0, 1 or 2, corresponding to negative, weak or strong) was performed in different tissue compartments: Benign ovarian stroma (A), primary ovarian cancer in the ovary (B), ovarian cancer metastatic to the omentum (C), interface of ovarian cancer cells into adipocytes (Adi) (D), and adipocytes (E). Error bars, ±s.e.m. […]
Lipid visualization. […] Adipocytes and extracellular fatty acids were washed away with HBSS containing 0.2% fatty-acid free BSA and total fluorescence per well in triplicate was quantified. […] Quantification of Bodipy neutral lipid dye was performed using Imaris software (Bitplane Inc., South Windor, Conn.) and normalized to number of nuclei in field (5-10 fields/condition). […]

[3] = tested on: SKOV3ip1 cells; experiment: invasion assay of SKOV3ip1 cells toward adipocytes; assay type: cell-based, human; settings: inhibitor added to coculture; used at 10 μM; 24 h
Text: as §1, with “±s.e.m. (b) Confocal microscopy images of lipid accumulation in SKOV3ip1 cells cocultured with or without primary human omental adipocytes and a FABP4 inhibitor (nuclear counterstaining). One of two experiments, conducted with different human subject samples, is shown. (c) Invasion assay of SKOV3ip1 cells toward adipocytes in the absence or presence of the FABP4 inhibitor HTS01037. Bars report mean fold change±s.e.m. One of two experiments, using two different human subject samples, is shown.” for “±s.e.m.”

[4] = tested on: FABP4 mRNA; experiment: FABP4 mRNA expression in ID8 cells transfected with shRNA (quantitative RT-PCR); assay type: cell-based, mouse; settings: ID8 cells transfected with FABP4 shRNA vs vector control
Text: FIGS. 16a-16d Effects of FABP4 downregulation. (a) FABP4 mRNA expression in ID8 mouse ovarian cancer cells transfected with FABP4 small hairpin RNA (shRNA) (F4) or vector control shRNA (VC) in the presence (+) or absence (−) of mouse adipocytes. Bars report means±s.e.m. (b) Tumor burden in mice 10 weeks after intraperitoneal injection of ID8 mouse ovarian cancer cells transfected with 5 million shRNA (F4 or VC). (c) Metastatic tumor burden in mice 10 weeks after intraperitoneal injection of ID8 mouse ovarian cancer cells transfected with 5 million shRNA (F4 or VC). […] FABP4 mRNA expression was measured by quantitiative RT-PCR.
Quantitative real-time PCR. […] Real-time quantitative reverse transcription-PCR (RT-PCR) was performed as described (Sawada et al., 2008) using the following probes (Applied Biosystems, Carlsbad, Calif.): acyl-coenzyme A oxidase (ACOX1, Hs01074241_m1), CXCR1 (IL-8 receptor, Hs00174146 ml), carnitine palmitoyltransferase 1a (CPT1a, Hs00912681_m1), fatty acid binding protein 4 (FABP4; human, Hs00609791_m1; mouse, Mm00445878_m1), perilipin 1 (PLIN1, Hs00160173_m1) and glyceraldehyde-3-phosphate dehydrogenase (GAPDH; human, Hs00266705_g1; mouse, Mm99999915_g1). Relative mRNA gene expression was calculated using the 2^−ΔΔCt method as described (Shell et al., 2007). […]

[5] = tested on: ID8 mouse ovarian cancer cells; experiment: tumor burden in mice after intraperitoneal injection of shRNA-transfected ID8 cells; assay type: in vivo; settings: 10 weeks after intraperitoneal injection of shRNA-transfected ID8 cells, vs control group
Text: FIGS. 16a-16d Effects of FABP4 downregulation. (a) FABP4 mRNA expression in ID8 mouse ovarian cancer cells transfected with FABP4 small hairpin RNA (shRNA) (F4) or vector control shRNA (VC) in the presence (+) or absence (−) of mouse adipocytes. Bars report means±s.e.m. (b) Tumor burden in mice 10 weeks after intraperitoneal injection of ID8 mouse ovarian cancer cells transfected with 5 million shRNA (F4 or VC). (c) Metastatic tumor burden in mice 10 weeks after intraperitoneal injection of ID8 mouse ovarian cancer cells transfected with 5 million shRNA (F4 or VC). (d) mRNA expression of FABP4 in tumors collected 10 weeks after intraperitonel injection of ID 8 mouse ovarian cancer cells transferred with FABP4 shRNA or vector control shRNA. FABP4 mRNA expression was measured by quantitiative RT-PCR.
Animal experiments. All animal experiments were approved by the Institutional Animal Care and Use Committee, University of Chicago. Xenograft animal experiments and in vivo homing were conducted in female immune-compromised athymic nude mice. […] Tumor volumes were measured as described (Zou et al., 2007) over 24 d and tumor weight determined at the end of the experiment. […] Metastatic tumor weight and number of metastatic nodules were determined at the end of each experiment and tumor tissue fixed in 10% formalin.

[6] = tested on: human ovarian cancer cells (HeyA8 or SKOV3ip1); experiment: ex vivo ovarian cancer cell proliferation on sections of human omentum; assay type: cell-based; settings: HeyA8 or SKOV3ip1, fluorescently labeled, 24 h
Text: Representative images (left) and quantified fluorescence (right) were shown. Bars report means±s.e.m.

[7] = tested on: ID8 mouse ovarian cancer cells; experiment: tumor burden in mice after bursal injection of ID8 cells and treatment with FABP4 inhibitor; assay type: in vivo; settings: 20 mg/kg body weight daily by oral gavage from day 60 after ID8 injection, assessed after 30 d
Experimental: (a) Immune competent mice were injected with 1 million ID8 cells under the ovarian bursa. […] Number of metastases (a) and metastatic tumor weight (b) were assessed 30 d after the FABP4 inhibitor or control vehicle treatment.

Molecule: CC(C)NCC(O)COc1cccc2ccccc12 (centres unmarked) [propranolol]
- ovarian cancer cell-induced HSL activation [1]: partially reversed

Molecule: COC(=O)c1sc(-c2cccs2)cc1NC(=O)C=CC(=O)O [HTS01037, 4-{[2-(methoxycarbonyl)-5-(2-thienyl)-3-thienyl]amino}-4-oxo-2-butenoic acid]
- lipid uptake in SKOV3ip1 cells cocultured with human omentum adipocytes ([2]; 36 h coculture, Bodipy 493/503): prevents lipid uptake
- lipid accumulation in the cancer cells ([2]; inhibitor added to coculture of ovarian cancer cells and adipocytes, used at 10 μM): drastically reduced
- adipocyte-mediated invasion [3]: drastically reduced

Molecule: FABP4 shRNA: FABP4 small hairpin RNA (shRNA); comprises a nucleic acid sequence of SEQ ID NO: 1 (CCGGCTGGATGGAAATTTGCATCAACTCGAGTTGATGCAAATTTCCATCCAGTTTTTG)
- mRNA expression level of FABP4 [4]: decreased
- tumor burden, intraperitoneal model [5]: substantially lowered

Molecule: CCc1c(-c2ccccc2)c(-c2ccccc2)nn1-c1ccccc1-c1cccc(OCC(=O)O)c1 [BMS309403, ((2′-(5-ethyl-3,4-diphenyl-1H-pyrazol-1-yl)(1,1′-biphenyl)-3-yl)oxy)-acetic acid]
- human ovarian cancer cell proliferation on sections of human omentum [6]: reduces human ovarian cancer cell proliferation
- tumor burden (number of metastases, metastatic tumor weight) [7]: significantly reduced
